Experimental data reported in patent US20240285634A1, “COMPOUND AND METHOD FOR TREATING CHEMOTHERAPY-ASSOCIATED GASTROINTESTINAL SIDE EFFECTS” (ONQUALITY PHARMACEUTICALS CHINA LTD., priority 2021, published 2024).

How the values were obtained:
[1] = system: Balb/c mice, diarrhea caused by continuous administration of a chemotherapeutic agent; test: Relieving effect on diarrhea caused by the continuous administration of a chemotherapeutic agent (Examples 365-384); assay type: in vivo; settings: for Relative remission rate (%): for 3 days, cycle 8 days
Text: Balb/c mice were fed for 1 week, and then divided into groups. The experiment was divided into a control group, a chemotherapeutic agent group, and a group of the compound as shown in Formula I, each of which comprised 10 mice, to perform the administration experiment, for which the administration dosage, mode, time and frequency were shown in Table 5. The control group: being injected or intragastrically administered with the same solvent as that used in the group of the compound as shown in Formula I (the administration mode and time were shown in Table 5), and then being injected or intragastrically administered with the same solvent as that used in the chemotherapeutic agent group (the administration mode was shown in Table 5); the chemotherapeutic agent group: being injected or intragastrically administered with the same solvent as that used in the group of the compound as shown in Formula I (the administration mode and time were shown in Table 5), and then being injected or intragastrically administered with the chemotherapeutic agent (the type, administration mode, time and dosage were shown in Table 5); the group of the compound as shown in Formula I: being injected or intragastrically administered with the compound as shown in Formula I (the administration mode and time were shown in Table 5), and then being administered with the chemotherapeutic agent (the type, administration mode, time and dosage were shown in Table 5).
(§1) The scoring of diarrhea can refer to the method of Akinobu Kurita (Cancer Chemother Pharmacol 2000; 46:211-20.), Grade 0): normal feces; Grade 1: mild diarrhea, the stools is slightly wet and soft; Grade 2: moderate diarrhea, loose stools and mild perianal contamination; Grade 3: severe diarrhea, watery stools and accompanied by severe perianal staining (see FIG. 1). It is regarded as effective remission when the diarrhea grading of mice in the group of the compound as shown in Formula I is reduced compared with the average diarrhea grading of mice in the chemotherapeutic agent group.
(§2) The diarrhea grading of mice was observed and recorded every day. At the end of the experiment, the number of mice in the group of the compound as shown in Formula I whose diarrhea grading was lower than that of mice in the chemotherapeutic agent group was recorded. Table 5 lists various animal experiment combinations of chemotherapeutic agents and the compound as shown in Formula I, as well as the corresponding experimental results. (Relative remission rate %=the number of mice in the group of the compound as shown in Formula I whose diarrhea has been effectively relieved/the total number of mice in the group of the compound as shown in Formula I*100%. The establishment rate of diarrhea model in the chemotherapeutic agent group was 50%-80%, that is, about 5-8 of 10 mice developed diarrhea during the experiment, and there were cases of individual mice death or not developing diarrhea.)

[2] = system: Chemotherapeutic agent-caused diarrhea models of Balb/c mice; test: Relieving effect on diarrhea caused by a chemotherapeutic agent (Examples 1-201); assay type: in vivo; settings: for diarrhea gradings compared with the chemotherapeutic agent group: administered before the chemotherapeutic agent, Table 3 and FIG. 2
Text: Construction of mouse animal models: Chemotherapeutic agent-caused diarrhea models of Balb/c mice were constructed according to the administration mode and frequency of the chemotherapeutic agent as shown in Table 3. After administration for several days, mice developed different extents of diarrhea symptoms (as shown in FIG. 1), which were similar to the conditions in human. Thus, chemotherapeutic agent-caused diarrhea models of mice are very good models to mimic diarrhea in human caused by the chemotherapeutic agent.
Balb/c mice were fed for 1 week, and then divided into groups. The experiment was divided into a control group, a chemotherapeutic agent group, and a group of the compound as shown in Formula I, each of which comprised 10 mice, to perform the administration experiment, for which the administration dosage, mode, time and frequency were shown in Table 3. The control group: being injected or intragastrically administered with the same solvent as that used in the group of the compound as shown in Formula I (the injection mode and time were shown in Table 3), and then being injected or intragastrically administered with the same solvent as that used in the chemotherapeutic agent group (the administration mode was shown in Table 3); the chemotherapeutic agent group: being injected or intragastrically administered with the same solvent as that used in the group of the compound as shown in Formula I (the administration mode and time were shown in Table 3), and then being injected or intragastrically administered with the chemotherapeutic agent (the type, administration mode and dosage were shown in Table 3); the group of the compound as shown in Formula I: being injected or intragastrically administered with the compound as shown in Formula I (the administration mode and time were shown in Table 3), and then being administered with the chemotherapeutic agent (the administration mode and dosage were shown in Table 3).
as §1, with “0:” for “0):”
as §2, with “3” for “5”, “50%-70%,” for “50%-80%,”, “5-7” for “5-8”

[3] = continuous administration of the chemotherapeutic agent for 7 days or less
[4] = continuous administration of the chemotherapeutic agent for less than 7 days

O=C1NCC2(CCCCC2)n2c1cc1cnc(Nc3ccc(N4CCNCC4)cn3)nc12 [Compound II]
Relative remission rate (%) ([1]; Example 381, Fluorouracil (5-Fu) intravenous injection 70 mg/kg once a day, compound intramuscular injection 100 mg/kg once a day, 0.5 h before chemotherapeutic agent): 40% | relieving effects on diarrhea [1, 3]: have relieving effects | relieving effects on diarrhea [1, 4]: significant | Relative remission rate ([2]; Ex 31, 5-Fu 125 mg/kg intraperitoneal single, compound 50 mg/kg intraperitoneal single 0.5 h before, cycle 10 days): 30% | Relative remission rate ([2]; Ex 32, 5-Fu 125 mg/kg intraperitoneal single, compound 100 mg/kg intraperitoneal single 4 h before, cycle 10 days): 60% | Relative remission rate ([2]; Ex 33, 5-Fu 125 mg/kg intraperitoneal single, compound 150 mg/kg intraperitoneal single 12 h before, cycle 10 days): 40% | Relative remission rate ([2]; Ex 173, Fluorouracil 50 + oxaliplatin 5 + irinotecan 50 + tetrahydrofolic acid 90 mg/kg intraperitoneal single, compound 100 mg/kg oral single 0.5 h before, cycle 7 days): 30% | Relative remission rate ([2]; Ex 174, Fluorouracil 50 + oxaliplatin 5 + irinotecan 50 + tetrahydrofolic acid 90 mg/kg intraperitoneal single, compound 100 mg/kg oral single 4 h before, cycle 7 days): 30% | Relative remission rate ([2]; Ex 175, Fluorouracil 50 + oxaliplatin 5 + irinotecan 50 + tetrahydrofolic acid 90 mg/kg intraperitoneal single, compound 100 mg/kg oral single 8 h before, cycle 7 days): 40% | Relative remission rate ([2]; Ex 176, Fluorouracil 50 + oxaliplatin 5 + irinotecan 50 + tetrahydrofolic acid 90 mg/kg intraperitoneal single, compound 100 mg/kg oral single 12 h before, cycle 7 days): 30% | Relative remission rate ([2]; Ex 177, Fluorouracil 50 + oxaliplatin 5 + irinotecan 50 + tetrahydrofolic acid 90 mg/kg intraperitoneal single, compound 100 mg/kg oral single 24 h before, cycle 7 days): 30% | Relative remission rate ([2]; Ex 197, Gemcitabine (GEM) 120 mg/kg intravenous single, compound 100 mg/kg oral single 24 h before, cycle 8 days): 40% | Relative remission rate ([2]; Ex 198, Etoposide 60 + carboplatin 5 mg/kg intraperitoneal single, compound 100 mg/kg oral single 2 h before, cycle 10 days): 50% | diarrhea gradings compared with the chemotherapeutic agent group [2]: relieved to different degrees

O=C1NCC2(CCCCC2)n2c1cc1cnc(Nc3ccc(N4CCC(N5CCOCC5)CC4)cn3)nc12 [Compound III]
Relative remission rate (%) ([1]; Example 382, Fluorouracil (5-Fu) intravenous injection 70 mg/kg once a day, compound subcutaneous injection 100 mg/kg once a day, 12 h before chemotherapeutic agent): 20% | relieving effects on diarrhea [1, 3]: have relieving effects | relieving effects on diarrhea [1, 4]: significant | Relative remission rate ([2]; Ex 89, Oxaliplatin 17.5 mg/kg intravenous single, compound 100 mg/kg intraperitoneal single 1 h before, cycle 8 days): 40% | Relative remission rate ([2]; Ex 90, Oxaliplatin 17.5 mg/kg intravenous single, compound 100 mg/kg intraperitoneal single 4 h before, cycle 8 days): 70% | Relative remission rate ([2]; Ex 91, Oxaliplatin 17.5 mg/kg intravenous single, compound 100 mg/kg intraperitoneal single 8 h before, cycle 8 days): 40% | Relative remission rate ([2]; Ex 178, Fluorouracil 50 + oxaliplatin 5 + irinotecan 50 + tetrahydrofolic acid 90 mg/kg intravenous single, compound 150 mg/kg oral single 0.5 h before, cycle 7 days): 30% | Relative remission rate ([2]; Ex 179, Fluorouracil 50 + oxaliplatin 5 + irinotecan 50 + tetrahydrofolic acid 90 mg/kg intravenous single, compound 150 mg/kg oral single 4 h before, cycle 7 days): 50% | Relative remission rate ([2]; Ex 180, Fluorouracil 50 + oxaliplatin 5 + irinotecan 50 + tetrahydrofolic acid 90 mg/kg intravenous single, compound 150 mg/kg oral single 8 h before, cycle 7 days): 40% | Relative remission rate ([2]; Ex 181, Fluorouracil 50 + oxaliplatin 5 + irinotecan 50 + tetrahydrofolic acid 90 mg/kg intravenous single, compound 150 mg/kg oral single 12 h before, cycle 7 days): 40% | Relative remission rate ([2]; Ex 182, Fluorouracil 50 + oxaliplatin 5 + irinotecan 50 + tetrahydrofolic acid 90 mg/kg intravenous single, compound 150 mg/kg oral single 24 h before, cycle 7 days): 20% | Relative remission rate ([2]; Ex 199, Etoposide 60 + carboplatin 5 mg/kg intraperitoneal single, compound 100 mg/kg oral single 0.5 h before, cycle 10 days): 60% | diarrhea gradings compared with the chemotherapeutic agent group [2]: relieved to different degrees

CC(C)N1CCN(c2ccc(Nc3ncc4cc5n(c4n3)C3(CCCCC3)CNC5=O)nc2)CC1 [Compound IV, Lerociclib]
Relative remission rate (%) ([1]; Example 380, Fluorouracil (5-Fu) intraperitoneal injection 70 mg/kg once a day, compound oral administration 100 mg/kg once a day, 4 h before chemotherapeutic agent): 30% | relieving effects on diarrhea [1, 3]: have relieving effects | relieving effects on diarrhea [1, 4]: significant | Relative remission rate ([2]; Ex 112, Irinotecan (CPT-11) 240 mg/kg intraperitoneal single, compound 100 mg/kg intraperitoneal single 0.5 h before, cycle 11 days): 60% | Relative remission rate ([2]; Ex 113, Irinotecan (CPT-11) 240 mg/kg intraperitoneal single, compound 100 mg/kg intraperitoneal single 4 h before, cycle 11 days): 50% | Relative remission rate ([2]; Ex 114, Irinotecan (CPT-11) 240 mg/kg intraperitoneal single, compound 100 mg/kg intraperitoneal single 8 h before, cycle 11 days): 30% | Relative remission rate ([2]; Ex 135, Fluorouracil 100 + irinotecan 200 mg/kg intraperitoneal single, compound 100 mg/kg oral single 0.5 h before, cycle 8 days): 30% | Relative remission rate ([2]; Ex 136, Fluorouracil 100 + irinotecan 200 mg/kg intraperitoneal single, compound 100 mg/kg oral single 12 h before, cycle 8 days): 50% | Relative remission rate ([2]; Ex 137, Fluorouracil 100 + irinotecan 200 mg/kg intraperitoneal single, compound 100 mg/kg oral single 24 h before, cycle 8 days): 40% | Relative remission rate ([2]; Ex 183, Fluorouracil 50 + oxaliplatin 5 + irinotecan 50 + tetrahydrofolic acid 90 mg/kg intravenous single, compound 100 mg/kg intraperitoneal single 0.5 h before, cycle 7 days): 80% | Relative remission rate ([2]; Ex 184, Fluorouracil 50 + oxaliplatin 5 + irinotecan 50 + tetrahydrofolic acid 90 mg/kg intravenous single, compound 100 mg/kg intraperitoneal single 4 h before, cycle 7 days): 60% | Relative remission rate ([2]; Ex 185, Fluorouracil 50 + oxaliplatin 5 + irinotecan 50 + tetrahydrofolic acid 90 mg/kg intravenous single, compound 100 mg/kg intraperitoneal single 8 h before, cycle 7 days): 50% | Relative remission rate ([2]; Ex 186, Fluorouracil 50 + oxaliplatin 5 + irinotecan 50 + tetrahydrofolic acid 90 mg/kg intravenous single, compound 100 mg/kg intraperitoneal single 12 h before, cycle 7 days): 50% | Relative remission rate ([2]; Ex 187, Fluorouracil 50 + oxaliplatin 5 + irinotecan 50 + tetrahydrofolic acid 90 mg/kg intravenous single, compound 100 mg/kg intraperitoneal single 24 h before, cycle 7 days): 40% | Relative remission rate ([2]; Ex 195, Topotecan 20 mg/kg intravenous single, compound 100 mg/kg oral single 0.5 h before, cycle 14 days): 60% | diarrhea gradings compared with the chemotherapeutic agent group [2]: relieved to different degrees
